Source: article PMC4199771, “Novel Cyclic di-GMP Effectors of the YajQ Protein Family Control Bacterial Virulence” (PLoS Pathogens, 2014)

What was measured:
YajQ = molecular target: T1, YajQ (Escherichia coli, UniProt P0A8E7); assay: biochemical; parameters: isothermal titration calorimetry of nucleotide binding to purified recombinant YajQ family protein
T1 construct: recombinant, N-terminal His6 tag cleaved with 3C protease
Description: (§1) The ability of XC_3703 to bind different nucleotides including cyclic di-GMP was further examined using isothermal titration calorimetry (ITC) with the purified protein (see Materials and Methods ). The full-length XC_3703 protein bound cyclic di-GMP with high affinity with a K d of 2 µM (Figure 1B; Table S2). It appeared that binding was endothermic in nature, which is a characteristic of a binding mechanism that favours hydrogen bonding and hydrophobic interactions, [16]. […] The observed binding affinity is within the range of physiological cyclic di-GMP levels observed in Xcc and is similar to the binding affinity of a number of established cyclic di-GMP effector proteins. […] To examine whether cyclic di-GMP binding was a common feature of this family, recombinant YajQ-like proteins from various bacteria including Escherichia coli, Pseudomonas aeruginosa, Stenotrophomonas maltophilia, Bacillus cereus and Clostridium species were purified and their ability to bind different nucleotides was assessed. […] The DNA fragments encoding the proteins of interest were synthesized by Gene Oracle in pGOv4 and sub-cloned into pET47b or pLAFR3 before transformation into E. coli BL21 (DE3). Genomic regions are described in Table S7. BL21 (DE3) cells were grown in LB media and induced with 0.25 mM IPTG; protein overexpression was carried out at 37°C for 1 h. Purification was achieved by Ni^2+ affinity chromatography using the N-terminal His6 tag followed by tag cleavage using recombinant 3C protease.

Clocel_3875 = molecular target: T2, Clocel_3875 (Clostridium cellulovorans, UniProt D9SKW9); assay: biochemical; parameters: isothermal titration calorimetry of nucleotide binding to purified recombinant YajQ family protein
T2 construct: recombinant, N-terminal His6 tag cleaved with 3C protease
Description: as §1

XC_3703 [1] = molecular target: T3, XC_3703 (Xanthomonas campestris, UniProt Q4UQD0); assay: isothermal titration calorimetry; assay type: binding
T3 construct: full-length, synthesized gene in pET47b, E. coli BL21(DE3), N-terminal His6 tag cut by 3C protease

XC_3703 [2] = molecular target: T3, XC_3703; assay: biochemical; parameters: isothermal titration calorimetry of nucleotide binding to purified recombinant YajQ family protein
Description: as §1

Smlt4090 = molecular target: T4, Smlt4090 (Stenotrophomonas maltophilia, UniProt B2FHW7); assay: isothermal titration calorimetry; assay type: binding
T4 construct: recombinant, synthesized gene in pET47b, E. coli BL21(DE3), N-terminal His6 tag cut by 3C protease
Text: isothermal titration calorimetry on Smlt4090 | YajQ family proteins from P. aeruginosa (PA4395) and S. maltophilia (Smlt4090)

PA4395 = molecular target: T5, PA4395 (Pseudomonas aeruginosa, UniProt Q9HW11); assay: isothermal titration calorimetry; assay type: binding
T5 construct: recombinant, synthesized gene in pET47b, E. coli BL21(DE3), N-terminal His6 tag cut by 3C protease; locus tag is of strain PAO1 (PA14 used in mice)
Text: isothermal titration calorimetry on PA4395 | affinity for cyclic di-GMP binding was only seen in YajQ family proteins from P. aeruginosa (PA4395)

[3] = molecular target: T6, XC_3703 (YajQ family) (Xanthomonas campestris pv. campestris 8004) (UniProt Q4UQD0); assay: EMSA
T6 sequence: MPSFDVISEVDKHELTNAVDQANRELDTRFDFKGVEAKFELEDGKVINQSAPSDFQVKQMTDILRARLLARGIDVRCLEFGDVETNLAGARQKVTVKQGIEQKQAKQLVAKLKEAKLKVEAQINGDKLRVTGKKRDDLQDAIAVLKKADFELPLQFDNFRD

T1 sequence (P0A8E7 whole entry): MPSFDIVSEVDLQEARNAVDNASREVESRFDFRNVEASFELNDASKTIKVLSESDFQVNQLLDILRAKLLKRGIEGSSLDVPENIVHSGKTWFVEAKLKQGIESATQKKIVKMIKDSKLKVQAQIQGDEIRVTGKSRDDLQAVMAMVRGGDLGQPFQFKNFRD
T2 sequence (D9SKW9 entry or part of it): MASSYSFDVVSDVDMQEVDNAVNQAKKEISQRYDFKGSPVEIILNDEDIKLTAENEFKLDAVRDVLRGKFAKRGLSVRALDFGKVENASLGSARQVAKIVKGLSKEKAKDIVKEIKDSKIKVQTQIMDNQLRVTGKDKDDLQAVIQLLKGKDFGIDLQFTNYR
T5 sequence (Q9HW11 whole entry): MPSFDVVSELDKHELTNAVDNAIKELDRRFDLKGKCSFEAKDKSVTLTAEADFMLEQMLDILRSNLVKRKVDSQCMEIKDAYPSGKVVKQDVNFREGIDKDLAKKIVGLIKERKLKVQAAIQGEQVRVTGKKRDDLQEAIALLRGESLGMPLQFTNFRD
T4 sequence (B2FHW7 whole entry): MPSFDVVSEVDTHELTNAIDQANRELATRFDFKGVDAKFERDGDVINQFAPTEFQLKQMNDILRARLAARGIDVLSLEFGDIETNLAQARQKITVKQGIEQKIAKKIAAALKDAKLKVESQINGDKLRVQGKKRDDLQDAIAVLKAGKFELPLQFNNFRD

Compound | Kd (YajQ) | Kd (Clocel_3875) | Kd (XC_3703 [1]; read-out: Kd) | Kd (XC_3703 [1]) | also measured
Nc1ncnc2c1ncn2[C@@H]1O[C@H](COP(=O)(O)OP(=O)(O)OP(=O)(O)O)[C@@H](O)[C@H]1O [ATP] | 28.2 µM | 21.1 µM | 3000 µM |  | 
Nc1nc2c(ncn2[C@@H]2O[C@H](COP(=O)(O)OP(=O)(O)OP(=O)(O)O)[C@@H](O)[C@H]2O)c(=O)[nH]1 [GTP] | 34.3 µM | 31 µM | 13000 µM |  | 
Nc1ncnc2c1ncn2[C@@H]1O[C@@H]2COP(=O)(O)O[C@H]3[C@@H](O)[C@H](n4cnc5c(N)ncnc54)O[C@@H]3COP(=O)(O)O[C@H]2[C@H]1O [cyclic di-AMP] |  |  |  | 900 µM | 
Nc1nc2c(ncn2[C@@H]2O[C@@H]3CO[P@](=O)(O)O[C@H]4[C@@H](O)[C@H](n5cnc6c(=O)[nH]c(N)nc65)O[C@@H]4CO[P@](=O)(O)O[C@H]3[C@H]2O)c(=O)[nH]1 [cyclic di-GMP] |  |  |  | 2 µM | Kd (XC_3703 [2]): 2.2 µM; Kd (Smlt4090): 7.91 µM; Kd (PA4395): 6.98 µM
GGCATCGAACCGGCCGCACGTTTCGCGGCTGTTGTGCAGTGAATACGTATGCACAGGGTCAATGCTGCGCCGCGATGCGCGCTTAGCATCACCGCGCGCCGCACGCCGTGGGGCGCGCTTTCCGGAACAGGGGCCGGAGGGCATTGCTGCATGCATCGCTGTGCGGGATGCGTGCGTCCACTGATCAGGAGACACACCCG (double strand) [aaeB promoter probe] |  |  |  |  | binding [3]: no binding
